Laboratory results published in patent US5336769A, “Xanthine derivatives” (Kyowa Hakko Kogyo Co., Ltd., priority 1992, dated 1994).

Tests used:
dd strain male mice = assay: Acute Toxicity Test, minimum lethal dose (MLD); format: in vivo; details: oral, mortality 7 days after administration
Description: Compounds 1 and 5 were orally administered to dd strain male mice (body weight: 20±1 g, 3 mice/group). The mortality was observed 7 days after the administration to determine the minimum lethal dose (MLD).

[1] = tested on: scopolamine-induced amnesia models; assay: Anti-dementia effect in scopolamine-induced amnesia models, step-through type passive avoidance (recall trial); format: in vivo, Male Wistar rats; details: oral, scopolamine 1 mg/kg i.p., 24 h after acquisition trial
Experimental: The effect of Compound (I) on dementia was determined by scopolamine-induced amnesia models (Basic, Clinical, and Therapeutic Aspects of Alzheimer's and Parkinson's Diseases: Vol. 2; T. Nagatsu, et al. edt; pp449; Plenum Press New York; 1990).
[…] The test was performed with a step-through type passive avoidance apparatus (the bright and dark box).
The bright and dark box was made up of a bright compartment (25×25×25 cm) lighted by 4W white fluorescent light and a dark compartment (25×25×25 cm). […] In order to give a foot shock, the electric current (2 mA: 2 sec) may be passed through the grid floor of the dark compartment.
The compound to be tested was suspended in 0.3% aqueous solution of carboxymethyl cellulose (CMC) and the suspension was orally administered 60 minutes before the acquisition trial. Only 0.3% CMC was given to the control group.
Amnesia-inducing treatment was carried out by intraperitoneally administering 1 mg/kg of scopolamine 30 minutes before the following acquisition trial.
The training for acquisition of learning (acquisition trial) was carried out. The rat was introduced into the bright compartment, and after 5 to 10 seconds, the guillotine door was opened. The rat in the bright compartment rapidly moved into the dark compartment. As soon as the whole body of the rat entered the dark compartment, the guillotine door was closed and an electric current of 2 mA was passed through the grid floor for two seconds (foot shock). Immediately after the foot shock, the rat was taken out of the dark compartment.
The test trial for observing the retention and recall of the memory (recall trial) was carried out as follows. Twenty-four hours after the acquisition trial, the rat was placed in the bright compartment and the guillotine door was opened. The length of time before the rat entered the dark compartment (latency) was measured. The latency was measured up to 600 seconds and the latency longer than 600 seconds was recorded as 600 seconds.
In the experiment, the amnesia control group had undergone the amnesia-inducing treatment and the normal control group had not undergone the amnesia-inducing treatment.
The anti-dementia effect was evaluated by Mann Whitney U-test to determine whether there was a significant difference in latency between the test compound treated group and the amnesia control group.

| SMILES | minimum lethal dose (MLD) (dd strain male mice) [mg/kg] | Recall trial mean reaction latency ([1]; 0.02 mg/Kg, 17 animals) [s] | Recall trial mean reaction latency ([1]; 0.08 mg/Kg, 18 animals) [s] | Recall trial mean reaction latency ([1]; 0.31 mg/Kg, 18 animals) [s] | Recall trial mean reaction latency ([1]; 1.25 mg/Kg, 17 animals) [s] | Recall trial mean reaction latency ([1]; 5.0 mg/Kg, 18 animals) [s] | Recall trial mean reaction latency ([1]; 20.0 mg/Kg, 17 animals) [s] |
| --- | --- | --- | --- | --- | --- | --- | --- |
| CCCn1c(=O)c2nc(C3CCCC3)[nH]c2n(CCc2ccc(NC(C)=O)cc2)c1=O [Compound 1, 3-(4-acetylaminophenethyl)-8-cyclopentyl 1-propylxanthine] | > 300 | 137.3 ± 44.5 | 174.8 ± 56.1 | 130.4 ± 38.5 | 170.3 ± 50.4 | 187.2 ± 50.2 | 116.2 ± 43.4 |
| CCCn1c(=O)c2[nH]c(C3CCCC3)nc2n(CCc2ccc(NC(=O)C3CCCC3)cc2)c1=O [Compound 5, 3-[4-(cyclopentanecarbonylamino)-phenethyl]-8-cyclopentyl-1-propylxanthine] | > 300 | – | – | – | – | – | – |
